Results published in US20050142581A1, “Microrna as ligands and target molecules” (priority 2003, published 2005).
Values joined by “and” are separate entries in the source; they are usually repeats but may differ in a detail not shown here. Equal values may be shown once. “Also recorded” adds a separate entry of the source. Oligonucleotides are written 5' to 3', each unit as a sugar letter and its base; * is a phosphorothioate linkage, no mark a phosphodiester; rarer units and linkages stand in square brackets, end groups in braces. Plain capitals give the bases only. e = 2'-O-(2-methoxyethyl) (MOE); [5mC] = 5-methylcytosine; d = 2'-deoxy (DNA)

What was measured:
[1] = test system: 27 nucleotide fragment of bacterial 16S ribosomal RNA incorporating the A-site; assay: ESI-FT-ICR mass spectrometry detection of non-covalent ligand complexes with 16S RNA fragment; type: binding; conditions: for ion abundance of binary complex relative to unbound 16S RNA: 200 μM ligand, 5 μM target 16S RNA fragment; for ion abundance of binary complex relative to unbound 16S RNA / relative binding affinity from comparison of ion abundance of binary complexes: mass spectrometry; for relative binding affinity from comparison of ion abundance of binary complexes: 16S RNA fragment; for mode of binding interaction of two ligands for the target RNA: ligand pair mixed with 5 μM 16S RNA fragment, presence and abundance of ternary complex
Text: Ligands bind competitively for a target when the binding of one ligand prevents the binding of the other ligand is the result of the ligands binding to the target at the same location. In this situation, the mixture contains an equilibrium of two binary complexes, one of which being one ligand bound to the target and the other being the other ligand bound to the target. The ligand having the greater affinity for the target will predominate and thus have higher signal intensity for its binary complex with the target compared to the other ligand. Competitive binding interaction between two ligands is determined according to methods of the invention by analyzing the mixture by mass-spectrometry to detect the presence or lack of signal corresponding to a ternary complex where both ligands are bound to the target at the same time. The lack of signal for a ternary complex indicates a competitive binding interaction between the two ligands while the presence of the signal indicates a non-competitive interaction.
Ligands bind concurrently when the binding of one ligand to the target is unaffected by the binding of the other and is a consequence of the ligands binding to the target at distinct sites. […] The ligand having the greater affinity for the target will have higher signal intensity for its binary complex with the target compared to the other ligand. […] Particularly, the absolute ion abundance of the ternary complex (TL1L2) is compared to the relative ion abundance of the binary complexes (TL1 and TL2) which contribute to the formation of the ternary complex with respect to the unbound target (TL1×TL2/T). Since there are two binary complexes contributing the formation of the ternary complex, the comparison is with the sum of the two contributing binary complexes i.e. TL1×TL2/T+TL2×TL1/T. If the absolute ion abundance of the ternary complex is equal to the sum of the relative ion abundance of the contributing binary complexes, then the two ligands concurrently bind to the target substrate. […] The relative ion abundance of the ternary complex (16S+2−DOS+DT) with respect to the unbound 16S target RNA (16S) is equal, within limits of error, to the sum of the relative ion abundance of the contributing binary complex ((16S+DT)×(16S+2−DOS)) with respect to the unbound target (16S) and the contributing binary complex ((16S+2−DOS)+(16S+DT)) with respect to the unbound target (16S).
All MS experiments were performed by using an Apex II 70e ESI-FT-ICR MS (Bruker Daltonics, Billerica, Mass.) with an actively shielded 7 tesla superconducting magnet. RNA solutions were prepared in 50 mM NH4OAc (pH 7), mixed with 10% isopropanol to aid desolvation, and infused at a rate of 1.5 μL/min by using a syringe pump. Ions were formed in a modified electrospray source (Analytica, Branford, Conn.) by using an off-axis grounded electrospray probe positioned about 1.5 cm from the metallized terminus of the glass desolvation capillary biased at 5,000 V. A countercurrent flow of dry […] gas heated to 150° C. was used to assist in the desolvation process. Ions were accumulated in an external ion reservoir comprised of a radio frequency-only hexapole, a skimmer cone, and an auxiliary electrode for 1,000 ms before transfer into the trapped ion cell for mass analysis. Each spectrum was the result of the co-addition of 64 transients comprised of 524,288 data points acquired over a […] bandwidth, resulting in a 1.2-sec detection interval. All aspects of pulse sequence control, data acquisition, and postacquisition processing were performed by using a Bruker Daltonics data station running XMASS Version 4.0 on a Silicon Graphics (Mountain View, Calif.) R5000 computer.
RNA binding ligands are selected from a set of compounds using mass spectrometry. The RNA used for the target molecule is an RNA whose electrospray ionization properties have been optimized in conjunction with optimization of the electrospray ionization and desolvation conditions. […]

[2] = test system: human CD40 mRNA; assay: Inhibition of CD40 mRNA levels by oligonucleotides (real-time RT-PCR); type: cell-based; set-up: concentration or dose not given beside the values; conditions: 2'-MOE gapmers, 18 nucleotides, phosphorothioate throughout; averaged from three experiments
How it was run: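 Cells at ~80% confluency were transfected with oligonucleotide at 150 nM final using Lipofectin 3.75 μg/ml for 4 h and harvested 16 h after treatment. Poly(A)+ mRNA was taken for TaqMan real-time RT-PCR of CD40, and percent inhibition was derived from a standard curve of untreated control mRNA.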

1-{2-[(3R)-4-((2S)-2-amino-3-hydroxypropanoyl)-3-methylpiperazinyl]-2-oxoethyl}-5-methyl-1,3-dihydropyrimidine-2,4-dione [IBIS-271583]
ion abundance of binary complex relative to unbound 16S RNA [1]: 27.8%
ion abundance of binary complex relative to unbound 16S RNA ([1]; listed as IBIS-271483): 52.4%
relative binding affinity from comparison of ion abundance of binary complexes [1]: greater affinity for 16S than either parent compound
relative binding affinity from comparison of ion abundance of binary complexes ([1]; listed as IBIS-271483): greater affinity for the target 16S RNA than either of the parent compounds

19270 (eG*eT*e[5mC]*eT*dT*dG*dT*dT*dT*dG*dT*dG*dC*dC*eT*eG*e[5mC]*e[5mC]; antisense) [compound 19270]
% Inhibition (Inhibition of CD40 mRNA Levels by Chimeric Phosphorothioate Oligonucleotides) [2]: 68.95%

19271 (e[5mC]*e[5mC]*eA*e[5mC]*dA*dG*dA*dC*dA*dA*dC*dA*dT*dC*eA*eG*eT*e[5mC]; antisense) [compound 19271]
% Inhibition (Inhibition of CD40 mRNA Levels by Chimeric Phosphorothioate Oligonucleotides) [2]: 11.22%

19272 (e[5mC]*eT*eG*eG*dG*dG*dA*dC*dC*dA*dC*dA*dG*dA*e[5mC]*eA*eA*e[5mC]; antisense) [compound 19272]
% Inhibition (Inhibition of CD40 mRNA Levels by Chimeric Phosphorothioate Oligonucleotides) [2]: 9.04%

19273 (eT*e[5mC]*eA*eG*dC*dC*dG*dA*dT*dC*dC*dT*dG*dG*eG*eG*eA*e[5mC]; antisense) [compound 19273]
% Inhibition (Inhibition of CD40 mRNA Levels by Chimeric Phosphorothioate Oligonucleotides) [2]: 0.00%

19274 (e[5mC]*eA*e[5mC]*e[5mC]*dA*dC*dC*dA*dG*dG*dG*dC*dT*dC*eT*e[5mC]*eA*eG; antisense) [compound 19274]
% Inhibition (Inhibition of CD40 mRNA Levels by Chimeric Phosphorothioate Oligonucleotides) [2]: 23.08%

19275 (eG*eG*eG*eA*dT*dC*dA*dC*dC*dA*dC*dC*dA*dG*eG*eG*e[5mC]*eT; antisense) [compound 19275]
% Inhibition (Inhibition of CD40 mRNA Levels by Chimeric Phosphorothioate Oligonucleotides) [2]: 57.94%

19276 (eG*eA*eG*eG*dA*dT*dG*dG*dC*dA*dA*dA*dC*dA*eG*eG*eA*eT; antisense) [compound 19276]
% Inhibition (Inhibition of CD40 mRNA Levels by Chimeric Phosphorothioate Oligonucleotides) [2]: 49.14%

19277 (eA*e[5mC]*e[5mC]*eA*dG*dC*dA*dC*dC*dA*dA*dG*dA*dG*eG*eA*eT*eG; antisense) [compound 19277]
% Inhibition (Inhibition of CD40 mRNA Levels by Chimeric Phosphorothioate Oligonucleotides) [2]: 3.48%

19278 (eT*eT*eT*eT*dG*dA*dT*dA*dA*dA*dG*dA*dC*dC*eA*eG*e[5mC]*eA; antisense) [compound 19278]
% Inhibition (Inhibition of CD40 mRNA Levels by Chimeric Phosphorothioate Oligonucleotides) [2]: 30.58%

19279 (eT*eA*eT*eT*dG*dG*dT*dT*dG*dG*dC*dT*dT*dC*eT*eT*eG*eG; antisense) [compound 19279]
% Inhibition (Inhibition of CD40 mRNA Levels by Chimeric Phosphorothioate Oligonucleotides) [2]: 49.26%

19280 (eG*eG*eG*eT*dT*dC*dC*dT*dG*dC*dT*dT*dG*dG*eG*eG*eT*eG; antisense) [compound 19280]
% Inhibition (Inhibition of CD40 mRNA Levels by Chimeric Phosphorothioate Oligonucleotides) [2]: 13.95%

19281 (eG*eT*e[5mC]*eG*dG*dG*dA*dA*dA*dA*dT*dT*dG*dA*eT*e[5mC]*eT*e[5mC]; antisense) [compound 19281]
% Inhibition (Inhibition of CD40 mRNA Levels by Chimeric Phosphorothioate Oligonucleotides) [2]: 54.78%

19282 (eG*eA*eT*e[5mC]*dG*dT*dC*dG*dG*dG*dA*dA*dA*dA*eT*eT*eG*eA; antisense) [compound 19282]
% Inhibition (Inhibition of CD40 mRNA Levels by Chimeric Phosphorothioate Oligonucleotides) [2]: 0.00%

19283 (eG*eG*eA*eG*dC*dC*dA*dG*dG*dA*dA*dG*dA*dT*e[5mC]*eG*eT*e[5mC]; antisense) [compound 19283]
% Inhibition (Inhibition of CD40 mRNA Levels by Chimeric Phosphorothioate Oligonucleotides) [2]: 69.47%

19284 (eT*eG*eG*eA*dG*dC*dC*dA*dG*dG*dA*dA*dG*dA*eT*e[5mC]*eG*eT; antisense) [compound 19284]
% Inhibition (Inhibition of CD40 mRNA Levels by Chimeric Phosphorothioate Oligonucleotides) [2]: 54.48%

19285 (eT*eG*eG*eA*dG*dC*dA*dG*dC*dA*dG*dT*dG*dT*eT*eG*eG*eA; antisense) [compound 19285]
% Inhibition (Inhibition of CD40 mRNA Levels by Chimeric Phosphorothioate Oligonucleotides) [2]: 15.17%

19286 (eG*eT*eA*eA*dA*dG*dT*dC*dT*dC*dC*dT*dG*dC*eA*e[5mC]*eT*eG; antisense) [compound 19286]
% Inhibition (Inhibition of CD40 mRNA Levels by Chimeric Phosphorothioate Oligonucleotides) [2]: 30.62%

19288 (e[5mC]*eG*eG*eT*dT*dG*dG*dC*dA*dT*dC*dC*dA*dT*eG*eT*eA*eA; antisense) [compound 19288]
% Inhibition (Inhibition of CD40 mRNA Levels by Chimeric Phosphorothioate Oligonucleotides) [2]: 34.49%

19289 (e[5mC]*eT*e[5mC]*eT*dT*dT*dG*dC*dC*dA*dT*dC*dC*dT*e[5mC]*e[5mC]*eT*eG; antisense) [compound 19289]
% Inhibition (Inhibition of CD40 mRNA Levels by Chimeric Phosphorothioate Oligonucleotides) [2]: 41.84%

19290 (e[5mC]*eT*eG*eT*dC*dT*dC*dT*dC*dC*dT*dG*dC*dA*e[5mC]*eT*eG*eA; antisense) [compound 19290]
% Inhibition (Inhibition of CD40 mRNA Levels by Chimeric Phosphorothioate Oligonucleotides) [2]: 25.68%

19291 (eG*eG*eT*eG*dC*dA*dG*dC*dC*dT*dC*dA*dC*dT*eG*eT*e[5mC]*eT; antisense) [compound 19291]
% Inhibition (Inhibition of CD40 mRNA Levels by Chimeric Phosphorothioate Oligonucleotides) [2]: 76.27%

19292 (eA*eA*e[5mC]*eT*dG*dC*dC*dT*dG*dT*dT*dT*dG*dC*e[5mC]*e[5mC]*eA*e[5mC]; antisense) [compound 19292]
% Inhibition (Inhibition of CD40 mRNA Levels by Chimeric Phosphorothioate Oligonucleotides) [2]: 63.34%

19293 (e[5mC]*eT*eT*e[5mC]*dT*dG*dC*dC*dT*dG*dC*dA*dC*dC*e[5mC]*e[5mC]*eT*eG; antisense) [compound 19293]
% Inhibition (Inhibition of CD40 mRNA Levels by Chimeric Phosphorothioate Oligonucleotides) [2]: 0.00%

19294 (eA*e[5mC]*eT*eG*dA*dC*dT*dG*dG*dG*dC*dA*dT*dA*eG*e[5mC]*eT*e[5mC]; antisense) [compound 19294]
% Inhibition (Inhibition of CD40 mRNA Levels by Chimeric Phosphorothioate Oligonucleotides) [2]: 11.55%

N[C@@H]1C[C@H](N)[C@@H](O)C(O)[C@H]1O (some centres unmarked) [2-DOS, 2-deoxystreptamine, reference compound]
relative binding affinity from comparison of ion abundance of binary complexes [1]: greater binding affinity for the target RNA than DT
mode of binding interaction of two ligands for the target RNA [1]: concurrent binding interaction; also recorded: cooperative binding

NN1CN(SCc2ccccc2)C=N1 [2-amino-4-benzylthio-1,2,4-triazole]
ions of ligand adduct with RNA target observed ([1]; RNA target 5 micromolar, ligand 100 micromolar, ammonium as standard ligand): also seen

Nc1n[nH]c(N)n1 [DT, 3,5-diamino-1,2,4-triazole, reference compound]
mode of binding interaction of two ligands for the target RNA [1]: concurrent binding interaction
mode of binding interaction of two ligands for the target RNA ([1]; listed as 3,5-DT): cooperative binding
mode of binding interaction of two ligands for the target RNA ([1]; listed as 3,5-diamino-1,2,4-triazole): concurrent binding

N[C@@H](CO)C(=O)N1CCNCC1 [IBIS-326611, (2S)-2-amino-3-hydroxy-1-piperazinylpropan-1-one]
ion abundance of binary complex relative to unbound 16S RNA [1]: 14.7% and 27.8%

Nc1cccc2nc(C3CCNCC3)[nH]c12 [Ibis-326732, 4-amino-2-piperidin-4-ylbenzimidazole]
relative binding affinity from comparison of ion abundance of binary complexes [1]: greater affinity than glucosamine
mode of binding interaction of two ligands for the target RNA [1]: competitive displacement of glucosamine; also recorded: competitive binders

N[C@H]1C(O)O[C@H](CO)[C@@H](O)[C@@H]1O (some centres unmarked) [glucosamine, reference compound]
mode of binding interaction of two ligands for the target RNA [1]: competitive binders; also recorded: displaced from the RNA by addition of a benzimidazole compound
